Values of other authors in patent US20060057174A1, “Natural-non-toxic insect repellant” (priority 2004, published 2006).

System: Aedes aegypti
Settings: ingredients of Skin-So-Soft bath oil

| Structure (SMILES) | repellent to Aedes aegypti |
| --- | --- |
| O=C(c1ccccc1)c1ccccc1 [benzophenone] | repellent |
| CC(C)OC(=O)CCCCC(=O)OC(C)C [diisopropyl adipate] | repellent |
